This note sets out measurements from patent US11230547B2, “Purine inhibitors of human phosphatidylinositol 3-kinase delta” (Merck Sharp & Dohme Corp., priority 2017, dated 2022).

What is called IC50 is the point on the concentration scale where inhibition reaches its midpoint.

Assay [1] addresses PI3Kalpha (Homo sapiens (Human), UniProt P42336). Briefly: HTRF PI3K biochemical assay, alpha isoform (selectivity versus delta). The note with it: relative ratio PI3K-alpha IC50 value / PI3K-delta IC50 value. From the text:
(§1) HTRF PI3K Biochemical Assay to Measure Intrinsic Potency of Compound Inhibitors
(§2) The PI3-Kinase biochemical assays were developed to measure the intrinsic potency and compound dependent inhibition of the alpha, beta, delta, and gamma PI3K isoform enzymes. This assay was developed and further optimized from a kit produced by Upstate (Millipore catalog #33-047) (Millipore Sigma, Billerica Mass., USA) and has been configured for high throughput screening (HTS) and structure-activity relationship (SAR) screening. Briefly, this procedure exploits the exquisite specificity and high affinity binding of […] phosphatidyl(3,4,5)triphosphate (PIP3) to the GRP1 pleckstrin homology (PH) domain to generate the signal. In the absence of PIP3, an HTRF (Homogeneous Time-Resolved Fluorescence energy transfer) complex is formed consisting of europium (u)-labeled anti-GST, GST tagged GRP1-PH domain, biotin-PIP3 (biotinylated-PIP3) and streptavidin conjugated APC (Allophycocyanin). The native PIP3 produced by PI3-Kinase activity disrupts in a competitive manner the biotin-PIP3 from the pleckstrin homology (PH) domain, resulting in the loss of energy transfer (HTRF complex) and a decrease in the signal. The format of this assay is the same for all 4 isoforms of PI3K; the differences lie in the concentration of enzyme used to achieve robust assay window. The alpha, beta, and delta assays are run at 0.5, 1, and 0.3 nM enzymes and the gamma assay is run at 5 nM enzyme. The ATP concentration is 100 uM in the alpha, beta, and delta assays and 50 uM adenosine triphosphate (ATP) in the gamma assay. All reactions are run at 5 uM PIP2.
(§3) Compounds are serially diluted (3-fold in 100% DMSO) across a 384-well polypropylene source plated from column 3 to column 12 and column 13 to column 22, to yield 10 concentration dose response for each test compound. Columns 1, 2, 23 and 24 contain either only DMSO or pharmacological known control inhibitor. Once titrations are made, 2.5 nL of the compounds on 384 well plates are reformatted and transferred by acoustic dispense in quadruplicates to a 1536 assay plate (Greiner) to assay across all four PI3K isoform enzymes.
(§4) The PI3-Kinase biochemical assay was optimized using the HTRF kit provided by Upstate (Millipore). The assay kit contains six reagents: 1) 4× Reaction Buffer; 2) native PIP2 (substrate); 3) Stop (EDTA); 4) Detection Mix A (Streptavidin-APC); 5) Detection Mix B (Eu-labeled Anti-GST plus GST-tagged PH-domain); 6) Detection Mix C. In addition, the following items were obtained or purchased; PI3Kinase (catalog #'s alpha 14-602, beta 14-603, gamma 14-558 and delta 14-604 from Upstate Biotechnology now EMD Millipore, Mahopac, N.Y., USA), dithiothreitol (Sigma-Aldrich Corp. (St. Louis, Mo., USA) Catalog #D-5545), Adenosine-5′ triphosphate (InVitrogen (Waltham, Mass., USA), Cat#AS001A), native PIP3 (PI(3,4,5)P3, diC8, H^+, CELLSIGNALS, INC., (Columbus, Ohio, USA) Cat #907) DMSO ((Sigma-Aldrich Corp. (St. Louis, Mo., USA) Catalog #472301).
(§5) PI3Kinase Reaction Buffer is prepared by dilution the stock 1:4 with de-ionized water. DTT (DL-Dithiothreitol), phosphatidylinositol 4,5-bisphosphate (PIP2) and Biotin-PIP3 were added to 1536 assay plate at a final concentration of 5 mM, […] and 25 nM on the day of use. Enzyme addition and compound pre-incubation are initiated by the addition of 1.25 ul of PI3K (at twice its final concentration) in the 1× reaction buffer to all wells using a BioRaptr™ (Beckman Coulter, Waltham, Mass. USA). Plates are incubated at room temperature for 15 minutes. Reactions are initiated by addition of 1.25 ul of 2× substrate solution (PIP2 and ATP in 1× reaction buffer) using BioRaptr™. Plates are incubated in humidified chamber at room temperature for one hour. Reactions are quenched by addition of 0.625 uL of stop solution to all wells using the BioRaptr™. […]

The target in assay [2] is PI3Kdelta (Homo sapiens (Human), UniProt O00329). In words: HTRF PI3K biochemical assay, delta isoform. The note with it: 0.3 nM enzyme, 100 uM ATP, 5 uM PIP2, form screened per table.
PI3Kdelta, sequence (O00329 whole entry, canonical isoform): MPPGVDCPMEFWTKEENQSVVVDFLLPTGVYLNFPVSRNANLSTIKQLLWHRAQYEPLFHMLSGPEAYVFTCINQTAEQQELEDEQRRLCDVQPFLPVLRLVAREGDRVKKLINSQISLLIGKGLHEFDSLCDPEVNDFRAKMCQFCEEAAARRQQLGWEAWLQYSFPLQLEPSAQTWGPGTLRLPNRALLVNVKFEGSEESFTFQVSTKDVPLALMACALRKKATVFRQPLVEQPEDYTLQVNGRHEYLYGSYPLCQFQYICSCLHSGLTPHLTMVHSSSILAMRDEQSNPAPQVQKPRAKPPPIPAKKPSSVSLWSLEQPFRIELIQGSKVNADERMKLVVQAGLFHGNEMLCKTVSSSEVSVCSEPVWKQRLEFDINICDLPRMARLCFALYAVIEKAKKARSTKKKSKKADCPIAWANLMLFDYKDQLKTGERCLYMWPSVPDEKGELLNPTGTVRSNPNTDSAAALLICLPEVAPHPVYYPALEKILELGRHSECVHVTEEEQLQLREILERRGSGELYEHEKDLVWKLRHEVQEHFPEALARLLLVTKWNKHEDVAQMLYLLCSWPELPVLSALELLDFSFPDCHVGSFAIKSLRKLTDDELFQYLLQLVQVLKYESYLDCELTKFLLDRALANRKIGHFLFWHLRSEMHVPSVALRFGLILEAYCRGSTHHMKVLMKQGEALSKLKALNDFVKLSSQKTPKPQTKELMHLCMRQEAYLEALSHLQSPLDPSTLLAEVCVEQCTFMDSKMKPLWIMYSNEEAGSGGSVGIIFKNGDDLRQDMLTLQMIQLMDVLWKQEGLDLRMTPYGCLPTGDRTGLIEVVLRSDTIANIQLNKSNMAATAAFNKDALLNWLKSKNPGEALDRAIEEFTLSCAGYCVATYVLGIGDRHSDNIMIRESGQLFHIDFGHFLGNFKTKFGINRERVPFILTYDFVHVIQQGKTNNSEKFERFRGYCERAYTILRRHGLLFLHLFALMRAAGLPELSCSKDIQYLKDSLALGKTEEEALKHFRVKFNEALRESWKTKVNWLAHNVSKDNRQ
PI3Kdelta, sequence (P27986 whole entry partner, canonical isoform): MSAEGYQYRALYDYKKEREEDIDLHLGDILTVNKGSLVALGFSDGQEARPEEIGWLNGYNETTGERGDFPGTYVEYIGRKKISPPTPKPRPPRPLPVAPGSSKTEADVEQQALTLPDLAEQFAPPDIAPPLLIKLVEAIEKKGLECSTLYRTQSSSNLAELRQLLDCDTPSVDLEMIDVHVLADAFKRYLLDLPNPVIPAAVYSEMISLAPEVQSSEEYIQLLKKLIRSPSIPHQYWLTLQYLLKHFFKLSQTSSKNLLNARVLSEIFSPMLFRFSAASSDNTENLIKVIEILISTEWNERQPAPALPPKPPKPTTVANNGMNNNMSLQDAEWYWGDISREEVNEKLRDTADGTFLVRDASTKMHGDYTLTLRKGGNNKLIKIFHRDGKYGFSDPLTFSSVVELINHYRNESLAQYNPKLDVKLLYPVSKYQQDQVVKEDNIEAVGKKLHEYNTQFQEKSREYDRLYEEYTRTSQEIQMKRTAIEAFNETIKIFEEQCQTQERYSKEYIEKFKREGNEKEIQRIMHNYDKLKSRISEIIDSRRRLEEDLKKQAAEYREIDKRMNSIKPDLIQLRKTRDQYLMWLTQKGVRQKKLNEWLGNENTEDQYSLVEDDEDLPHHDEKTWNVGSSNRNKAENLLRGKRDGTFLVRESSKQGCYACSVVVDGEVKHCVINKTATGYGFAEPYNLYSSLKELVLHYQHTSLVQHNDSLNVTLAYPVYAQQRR
Source text: as §1, §2, §3, §4, §5

PI3Kalpha, sequence (P42336 whole entry, canonical isoform): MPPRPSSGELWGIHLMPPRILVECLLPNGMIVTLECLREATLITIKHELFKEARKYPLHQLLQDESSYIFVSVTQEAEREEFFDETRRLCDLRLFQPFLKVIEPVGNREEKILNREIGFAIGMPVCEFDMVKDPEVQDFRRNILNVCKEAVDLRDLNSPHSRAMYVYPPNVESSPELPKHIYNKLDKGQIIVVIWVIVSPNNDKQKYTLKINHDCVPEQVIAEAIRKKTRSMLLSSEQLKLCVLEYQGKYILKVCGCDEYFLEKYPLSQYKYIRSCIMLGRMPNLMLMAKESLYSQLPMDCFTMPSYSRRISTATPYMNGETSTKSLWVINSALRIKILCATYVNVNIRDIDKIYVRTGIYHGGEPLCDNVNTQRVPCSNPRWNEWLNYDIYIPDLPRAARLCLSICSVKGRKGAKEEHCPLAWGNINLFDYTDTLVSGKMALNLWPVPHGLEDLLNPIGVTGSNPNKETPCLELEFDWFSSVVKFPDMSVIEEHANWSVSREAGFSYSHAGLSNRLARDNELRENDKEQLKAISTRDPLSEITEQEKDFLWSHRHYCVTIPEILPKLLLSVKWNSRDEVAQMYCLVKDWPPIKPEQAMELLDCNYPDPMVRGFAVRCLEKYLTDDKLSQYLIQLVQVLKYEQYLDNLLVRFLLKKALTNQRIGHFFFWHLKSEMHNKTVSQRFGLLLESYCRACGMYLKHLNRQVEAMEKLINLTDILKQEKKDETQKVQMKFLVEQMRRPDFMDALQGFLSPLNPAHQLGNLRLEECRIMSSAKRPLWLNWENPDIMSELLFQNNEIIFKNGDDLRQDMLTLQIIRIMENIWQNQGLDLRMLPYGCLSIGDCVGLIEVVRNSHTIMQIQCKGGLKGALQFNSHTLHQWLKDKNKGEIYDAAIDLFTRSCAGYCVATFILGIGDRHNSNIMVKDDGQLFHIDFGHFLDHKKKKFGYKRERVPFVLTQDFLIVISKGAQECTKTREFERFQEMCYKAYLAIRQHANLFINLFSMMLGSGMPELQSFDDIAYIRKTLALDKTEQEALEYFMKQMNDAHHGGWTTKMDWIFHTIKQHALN
PI3Kalpha, sequence (P27986 whole entry partner, canonical isoform): as the sequence (P27986 whole entry partner, canonical isoform) above

For `N#Cc1cnc(-c2cccc3[nH]ncc23)nc1N1C[C@@H]2CC1CN2c1cccc(F)c1` (stereo in doubt) [Compound 1-20, 4-[(1R,4S)-5-(3-fluorophenyl)-2,5-diazabicyclo[2.2.1]hept-2-yl]-2-(1H-indazol-4-yl)pyrimidine-5-carbonitrile], the “Selectivity versus PI3Kalpha” value in assay [1] worked out at 9. The IC50 in assay [2] worked out at 200 nM.
Regarding `Cn1cc(-c2ncc(C#N)c(N3CC4C[C@H]3CN4C(=O)C3CCC3)n2)cn1` (stereo in doubt) [Compound 2-9, 4-[(1S,4R)-5-(cyclobutylcarbonyl)-2,5-diazabicyclo[2.2.1]hept-2-yl]-2-(1-methyl-1H-pyrazol-4-yl)pyrimidine-5-carbonitrile], the “Selectivity versus PI3Kalpha” value in assay [1] was >10. The same compound displayed an IC50 in assay [2] of 330 nM.
For `N#Cc1cnc(-c2cn[nH]c2)nc1N1C[C@@H]2C[C@H]1CN2c1cccc(F)c1` [Compound 1-7, 4-[(1S,4S)-5-(3-fluorophenyl)-2,5-diazabicyclo[2.2.1]hept-2-yl]-2-(1H-pyrazol-4-yl)pyrimidine-5-carbonitrile], in that order: >10 and 42 nM.
As for `Cn1cc(-c2ncc(C#N)c(N3CCN(c4cccc(F)c4)CC3)n2)cn1` [Compound 3-2, 4-[4-(3-fluorophenyl)piperazin-1-yl]-2-(1-methyl-1H-pyrazol-4-yl)pyrimidine-5-carbonitrile], in assay [1], the “Selectivity versus PI3Kalpha” value was 7. This compound also registered an IC50 in assay [2] of 1600 nM.
Consider `C[C@@H]1CN(c2nc(-c3cnn(C)c3)nc(NC3CCC3)c2C#N)CCN1C(=O)C1CC1` [Compound 6-7, 4-(cyclobutylamino)-6-[(3R)-4-(cyclopropylcarbonyl)-3-methylpiperazin-1-yl]-2-(1-methyl-1H-pyrazol-4-yl)pyrimidine-5-carbonitrile], for which the “Selectivity versus PI3Kalpha” value in assay [1] was >10. In addition, the half-maximal inhibitory concentration (IC50) in assay [2] came out at 80 nM.
For the compound `Cn1cc(-c2ncc(C#N)c(N3CC4C[C@H]3CN4C(=O)CC3COC3)n2)cn1` (stereo in doubt) [Compound 2-12, 2-(1-methyl-1H-pyrazol-4-yl)-4-[(1S,4R)-5-(oxetan-3-ylacetyl)-2,5-diazabicyclo[2.2.1]hept-2-yl]pyrimidine-5-carbonitrile], the “Selectivity versus PI3Kalpha” value in assay [1] was 10. The compound also showed an IC50 in assay [2] of 480 nM.
Take `CC(C)NC(=O)Nc1nc(-c2cnn(C)c2)nc(N2CCN(C(=O)C3CC3)[C@H](C)C2)c1C#N` [Compound 6-2, 1-{5-cyano-6-[(3R)-4-(cyclopropylcarbonyl)-3-methylpiperazin-1-yl]-2-(1-methyl-1H-pyrazol-4-yl)pyrimidin-4-yl}-3-(1-methylethyl)urea]: in assay [1], the “Selectivity versus PI3Kalpha” value was >10. The compound also returned an IC50 in assay [2] of 5.6 nM.
Consider `C[C@@H]1CN(c2nc(-c3cnn(C)c3)nc(N)c2C#N)CCN1C(=O)C1CC1` [Compound 6-1, 4-amino-6-[(3R)-4-(cyclopropylcarbonyl)-3-methylpiperazin-1-yl]-2-(1-methyl-1H-pyrazol-4-yl)pyrimidine-5-carbonitrile], for which, in assay [1], the “Selectivity versus PI3Kalpha” value is >10. In addition, the midpoint of inhibition in assay [2], the IC50, lay at 130 nM.
For `C[C@@H]1CN(c2nc(-c3cnn(C)c3CCC(F)(F)F)ncc2C#N)CCN1C(=O)C1CC1` [Compound 6-11, 4-[(3R)-4-(cyclopropylcarbonyl)-3-methylpiperazin-1-yl]-2-[1-methyl-5-(3,3,3-trifluoropropyl)-1H-pyrazol-4-yl]pyrimidine-5-carbonitrile], the “Selectivity versus PI3Kalpha” value in assay [1] is >10. The IC50 in assay [2] was determined as 160 nM.
As to `COCC1(C(=O)N2C[C@@H]3CC2CN3c2nc(-c3cnn(C)c3)ncc2C#N)CC1` (stereo in doubt) [Compound 2-8, 4-[(1S,4R)-5-{[1-(methoxymethyl)cyclopropyl]carbonyl}-2,5-diazabicyclo[2.2.1]hept-2-yl]-2-(1-methyl-1H-pyrazol-4-yl)pyrimidine-5-carbonitrile], the “Selectivity versus PI3Kalpha” value in assay [1] is >10. This compound also displayed an IC50 in assay [2] of 270 nM.
Taken in the same sequence, the figures for `C[C@@H]1C[C@@H]1C(=O)N1CCN(c2nc(-c3cnn(C)c3)ncc2C#N)C[C@H]1C` [Compound 4-9, 4-[(3R)-3-methyl-4-{[(1S,2R)-2-methylcyclopropyl]carbonyl}piperazin-1-yl]-2-(1-methyl-1H-pyrazol-4-yl)pyrimidine-5-carbonitrile] were >10 and 80 nM.
As for `C[C@@H]1CN(c2ncc(C#N)c(-c3cn(C)nc3N)n2)CCN1C(=O)C1CC1` [Compound 6-14, 4-(3-amino-1-methyl-1H-pyrazol-4-yl)-2-[(3R)-4-(cyclopropylcarbonyl)-3-methylpiperazin-1-yl]pyrimidine-5-carbonitrile], the “Selectivity versus PI3Kalpha” value in assay [1] was >10. Further, the IC50 in assay [2] came to 21 nM.
For the compound `Cn1cc(-c2ncc(C#N)c(N3CC4C[C@H]3CN4c3ccc(C(F)F)nc3)n2)cn1` (stereo in doubt) [Compound 1-4, 4-{(1S,4R)-5-[6-(difluoromethyl)pyridin-3-yl]-2,5-diazabicyclo[2.2.1]hept-2-yl}-2-(1-methyl-1H-pyrazol-4-yl)pyrimidine-5-carbonitrile], the “Selectivity versus PI3Kalpha” value in assay [1] is listed as >10. In assay [2], the IC50 amounted to 540 nM.
In the case of `Cn1cc(-c2ncc(C#N)c(N3CCN(C(=O)C4CC4)[C@H](CO)C3)n2)cn1` [Compound 5-7, 4-[(3S)-4-(cyclopropylcarbonyl)-3-(hydroxymethyl)piperazin-1-yl]-2-(1-methyl-1H-pyrazol-4-yl)pyrimidine-5-carbonitrile], the “Selectivity versus PI3Kalpha” value in assay [1] is on record as >10. Further, in assay [2], it took 760 nM to reach half-maximal inhibition (IC50).
With `C[C@@H]1CN(c2nc(-c3cnn(C)c3)ncc2C#N)CCN1C(=O)C1CCC1` [Compound 4-3, 4-[(3R)-4-(cyclobutylcarbonyl)-3-methylpiperazin-1-yl]-2-(1-methyl-1H-pyrazol-4-yl)pyrimidine-5-carbonitrile], in assay [1], the “Selectivity versus PI3Kalpha” value is reported as >10. Besides, the IC50 in assay [2] was 370 nM.
For the compound `C[C@@H]1CN(c2nc(-c3cnn(C)c3)c(C#N)c(C3CC3)n2)CCN1C(=O)C1CC1` [Compound 6-27, 4-cyclopropyl-2-[(3R)-4-(cyclopropylcarbonyl)-3-methylpiperazin-1-yl]-6-(1-methyl-1H-pyrazol-4-yl)pyrimidine-5-carbonitrile], in assay [1], the “Selectivity versus PI3Kalpha” value is listed as >10. The same compound had an IC50 in assay [2] of 32 nM.
As to `CSc1cnc(N2CCN(C(=O)C3CC3)[C@H](C)C2)nc1-c1cnn(C)c1` [Compound 5-10, 2-[(3R)-4-(cyclopropylcarbonyl)-3-methylpiperazin-1-yl]-4-(1-methyl-1H-pyrazol-4-yl)-5-(methylsulfanyl)pyrimidine], the “Selectivity versus PI3Kalpha” value in assay [1] is >10. Also, the midpoint of inhibition in assay [2], the IC50, lay at 340 nM.
Regarding `CC(C)CNc1nc(-c2cnn(C)c2)nc(N2CCN(C(=O)C3CC3)[C@H](C)C2)c1C#N` [Compound 6-21, 4-[(3R)-4-(cyclopropylcarbonyl)-3-methylpiperazin-1-yl]-6-[(2-methylpropyl)amino]-2-(1-methyl-1H-pyrazol-4-yl)pyrimidine-5-carbonitrile], the “Selectivity versus PI3Kalpha” value in assay [1] is reported as >10. Also, 21 nM corresponded to half-maximal inhibition in assay [2] (IC50).
For `C[C@@H]1CN(c2ncc(C#N)c(-c3cnn(C)c3)n2)CCN1C(=O)C1CC1` [Compound 5-4, 2-[(3R)-4-(cyclopropylcarbonyl)-3-methylpiperazin-1-yl]-4-(1-methyl-1H-pyrazol-4-yl)pyrimidine-5-carbonitrile], the “Selectivity versus PI3Kalpha” value in assay [1] is on record as >10. Further, the IC50 in assay [2] was 21 nM.
